In paper PMC8020931, “Spectroscopic and in silico investigation of the interaction between GH1 β‐glucosidase and ginsenoside Rb1” (Food Science & Nutrition, 2021):

Molecular target: T1, β‐glucosidase (GH1 family, bglB) (Paenibacillus polymyxa, UniProt P22505)
T1 construct: full-length protein encoded by bglB (448 aa, GenBank M60211.1), six His-tags, pET-28a(+), expressed in E. coli BL21(DE3)
Assay: LSPR (enzyme immobilised on COOH chip, […] model); supported by fluorescence quenching, UV-Vis and CD
Type: binding

T1 sequence (P22505 whole entry): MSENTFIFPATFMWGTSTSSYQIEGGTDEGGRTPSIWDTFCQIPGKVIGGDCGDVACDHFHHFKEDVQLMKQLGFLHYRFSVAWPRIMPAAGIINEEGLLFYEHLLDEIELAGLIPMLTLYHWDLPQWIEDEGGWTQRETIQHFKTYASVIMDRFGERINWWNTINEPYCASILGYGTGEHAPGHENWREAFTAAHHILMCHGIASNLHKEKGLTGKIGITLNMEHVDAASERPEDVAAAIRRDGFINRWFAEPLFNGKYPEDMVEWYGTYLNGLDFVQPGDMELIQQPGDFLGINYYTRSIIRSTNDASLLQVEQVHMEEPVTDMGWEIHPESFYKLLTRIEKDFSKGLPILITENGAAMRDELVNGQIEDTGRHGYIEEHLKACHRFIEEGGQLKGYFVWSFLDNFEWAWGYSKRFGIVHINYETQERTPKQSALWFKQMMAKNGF

Kd: 524 µM
Structure (SMILES): CC(C)=CCC[C@](C)(O[C@@H]1O[C@H](CO[C@@H]2O[C@H](CO)[C@@H](O)[C@H](O)[C@H]2O)[C@@H](O)[C@H](O)[C@H]1O)[C@H]1CC[C@]2(C)[C@@H]1[C@H](O)C[C@@H]1[C@@]3(C)CC[C@H](O[C@@H]4O[C@H](CO)[C@@H](O)[C@H](O)[C@H]4O[C@@H]4O[C@H](CO)[C@@H](O)[C@H](O)[C@H]4O)C(C)(C)[C@@H]3CC[C@]12C [ginsenoside Rb1]
